From US8420012B2, “Use of monochlorourea to treat industrial waters” (Hercules Incorporated, priority 2009, dated 2013)

Experiments:
[1] = Stability in the presence of chlorine demand (0.1× nutrient broth), total chlorine by Hach DPD; type: physicochemical; conditions: 0.1× nutrient broth, initial 5 ppm chlorine, 37° C.
Method: This can be seen in Table 4 below. 20 mL aliquots of a 0.1× nutrient broth were used and the active species added such that the initial concentration of each was equivalent to 5 ppm chlorine as measured by the Hach. To prepare the nutrient broth Difco Nutrient Broth (8 grams) was dissolved in 1 L of deionized water, and subsequently diluted to 0.1× of the initial concentration prior to being autoclaved at 121° C. for 15 minutes. 100 mL solutions of each of the actives were made, and the concentration was measured using standard Hach test procedures on a BetzDearborn DR 2010 Spectrophotometer. At each time point a 1:10 dilution of the solution in DI water was made and placed in the spectrophotometer cell. Hach Permachem DPD Total Chlorine Reagent was added and the cell was placed into the spectrophotometer. The ppm of Cl2 was measured at 0, 1, 3, 6, 24, and 48 hours. A fresh dilution was made at each time point, if necessary, and the bottles of solution were placed in a shaking incubator at 37° C. in between runs. Dimethyl monochlorourea is notated as DMCU. Bis-hydroxymethyl chlorourea is BHMCU.

Pseudomonas aeruginosa [2] = experiment: Log10 reduction of viable P. aeruginosa in PBS after exposure to biocide (Example 8); type: cell-based; conditions: average of three
Method: The efficacy of dimethyl monochlorourea (DMCU) as a biocide, as synthesized in Example 5, was tested against the bacterium Pseudomonas aeruginosa. The Hach DPD chlorine test (Hach Company, Loveland, Colo.) was used to measure the total available chlorine concentrations of each biocide tested. Concentrations are reported in units of milligrams per liter as Cl2. P. aeruginosa was grown overnight in Trypticase Soy Broth at 37° C. The culture was split into aliquots of equal volume and suspended in physiologically buffered saline (PBS). […] The cultures were then evaluated by measuring viable cell counts after exposure to the biocides.

[3] = Free vs. total chlorine (Hach DPD) of 1000 ppm solutions in synthetic hard water; type: physicochemical; conditions: synthetic hard water 250 ppm hardness, 35° C.
Method: Differences exist between monochlorourea and sodium hypochlorite, namely, sodium hypochlorite is a free chlorine generating biocide while monochlorourea is not. Free and total chlorine are measured using the DPD reagents from the Hach Company. The test is a colorimetric test in which more intense color development results as more oxidizing chlorine is present in the sample. The rate at which the dye reacts with the oxidizing chemical depends on whether the chlorine is free or bound. Total chlorine includes both free and bound chlorine.
The rate at which the dye reacts with total chlorine is accelerated by the addition of iodide to the test. This differentiates the free and total chlorine. The iodide reacts rapidly with bound oxidizing chlorine to form iodine and chloride. The iodine, a free oxidizing halogen, reacts very rapidly with the DPD dye.
One thousand ppm (as total Cl2) solutions of monochlorourea and sodium hypochlorite were prepared in synthetic hard water with 250 ppm hardness. Total and free chlorine readings were taken at 0 minutes, 30 minutes, 2 hours, and 4 hours. Untreated hard water solutions were used as blanks. The samples were stored at 35° C.+/−2° C. with mild stirring. pH values are provided as a reference points for the conditions of the chlorine species at the various test times.
Table 3 compares duplicate samples of sodium hypochlorite and monochlorourea. Significant differences exist between the free and total chlorine values of these chemicals. The release of free chlorine from monochlorourea is an energetically unfavorable reaction. Monochlorourea is a combined chlorine species that functions to kill bacteria not as a donor of free chlorine, but as a biocide itself.
Made-up 1 Liter sample of synthetic hard water with 250 ppm hardness.
Took 100 mL aliquots and set up duplicate samples of biocides at least 1,000 ppm based on total Chlorine readings.
Monitored pH, free chlorine and total chlorines at timed intervals of—0 min, 30 min, 2 hours, and 4 hours,
Monitored un-treated (blank) hard water at time 0 to serve as baseline.
Between sampling stored all samples in 35° C.+/−2° C. Heater/shaker with mild stirring.

P. aeruginosa = experiment: Viability of P. aeruginosa inoculated in paper mill process water, plated after 60 minutes; type: cell-based, Pseudomonas aeruginosa; conditions: papermill process water, average of three
Method: Paper mill process water samples were collected from a paper mill producing super calendered paper Samples were inoculated with P. aeruginosa, and then dosed with monochlorourea and sodium hypochlorite and plated after 60 minutes.

Pseudomonas aeruginosa [4] = experiment: Viable cell counts of P. aeruginosa in PBS after 60 minutes exposure to biocide (Example 6); type: cell-based; conditions: average of three
Method: The efficacy of monochlorourea as a biocide, as synthesized in Example 1, was tested against the bacterium Pseudomonas aeruginosa. The Hach DPD chlorine test (Hach Company, Loveland, Colo.) was used to measure the total available chlorine concentrations of each biocide tested. Concentrations are reported in units of milligrams per liter as Cl2. P. aeruginosa was grown overnight in Trypticase Soy Broth at 37° C. The culture was split into aliquots of equal volume, suspended in physiologically buffered saline (PBS). In this example, the cultures were exposed to […], 5.0 mg/L, 10.0 mg/L, and 15.0 mg/L of biocide for 60 minutes. The cultures were then evaluated by measuring viable cell counts after exposure to the biocides.

[5] = Effect of pH on stability of monochlorourea in D2O by 13C NMR; type: physicochemical
Source text: The effect of pH on the stability of monochlorourea was significant. Carbon 13 labeled urea was used to examine the stability of the products overnight in D2O. […] However, completely acidifying all the solutions to a pH of 2.5 did have a significant effect on both the yield and the stability of the product.

[6] = Stability of dimethylchlorourea aqueous solutions at different pH and temperature by UV-Vis Spectroscopy; type: physicochemical
Source text: The stability of dimethylchlorourea was also examined under a variety of different conditions including pH and temperature. […] In the following table the initial concentration C0, the final concentration Cf, the final time tf and the half life t½, are given.

[7] = Time = 30 min, listed as Bleach-1
[8] = Time = 30 min, listed as Bleach-2
[9] = Time = 2 hours, listed as Bleach-1
[10] = Time = 2 hours, listed as Bleach-2
[11] = Time = 4 hours, listed as Bleach-1
[12] = Time = 4 hours, listed as Bleach-2
[13] = Time = 2 hours, listed as MCU-1
[14] = Time = 2 hours, listed as MCU-2
[15] = Time = 4 hours, listed as MCU-1
[16] = Time = 4 hours, listed as MCU-2

NCl [monochloramine]
Stability: total chlorine remaining relative to initial ([1]; 0 hr): 100%
Stability: total chlorine remaining relative to initial ([1]; 3 hrs): 24%
Stability: total chlorine remaining relative to initial ([1]; 6 hrs): 6%
Stability: total chlorine remaining relative to initial ([1]; 24 hrs): 2%
Stability: total chlorine remaining relative to initial ([1]; 48 hrs): 1%

[Na+].[O-]Cl [NaOCl, Sodium Hypochlorite]
log10 reduction of viable cfu/mL (LR) (Pseudomonas aeruginosa [2]; 1 mg/L): 5.3 log10
log10 reduction of viable cfu/mL (LR) (Pseudomonas aeruginosa [2]; 3 mg/L): 5.4 log10
log10 reduction of viable cfu/mL (LR) (Pseudomonas aeruginosa [2]; 5 mg/L): 6.7 log10
Free Cl ([3]; Time = 0, listed as Bleach-1): 900 ppm
Tot Cl ([3]; Time = 0, listed as Bleach-1): 950 ppm
Free Cl ([3]; Time = 0, listed as Bleach-2): 950 ppm
Tot Cl ([3]; Time = 0, listed as Bleach-2): 1060 ppm
Free Cl [3, 7]: 860 ppm
Tot Cl [3, 7]: 890 ppm
Free Cl [3, 8]: 880 ppm
Tot Cl [3, 8]: 1020 ppm
Free Cl [3, 9]: 810 ppm
Tot Cl [3, 9]: 920 ppm
Free Cl [3, 10]: 840 ppm
Tot Cl [3, 10]: 1010 ppm
Free Cl [3, 11]: 840 ppm
Tot Cl [3, 11]: 940 ppm
Free Cl [3, 12]: 950 ppm
Tot Cl [3, 12]: 1040 ppm
Stability: total chlorine remaining relative to initial ([1]; 0 hr): 100%
Stability: total chlorine remaining relative to initial ([1]; 3 hrs): 22%
Stability: total chlorine remaining relative to initial ([1]; 6 hrs): 6%
Stability: total chlorine remaining relative to initial ([1]; 24 hrs): 2%
Stability: total chlorine remaining relative to initial ([1]; 48 hrs): 1%
log10 of viable cfu/mL (P. aeruginosa; 1.0 mg/l): 9.9 log10 cfu/mL
log10 of viable cfu/mL (P. aeruginosa; 3.0 mg/l): 9.8 log10 cfu/mL
log10 of viable cfu/mL (P. aeruginosa; 5.0 mg/l): 8.7 log10 cfu/mL
log10 of viable cfu/mL (P. aeruginosa; 10.0 mg/l): 4.5 log10 cfu/mL
log10 of viable cfu/mL remaining after exposure (Pseudomonas aeruginosa [4]; 5.0 mg/L as Cl2, 60 minutes): 9.7 log10 cfu/mL
log10 of viable cfu/mL remaining after exposure (Pseudomonas aeruginosa [4]; 10.0 mg/L as Cl2, 60 minutes): 9.1 log10 cfu/mL
log10 of viable cfu/mL remaining after exposure (Pseudomonas aeruginosa [4]; 15.0 mg/L as Cl2, 60 minutes): 4.4 log10 cfu/mL

NC(=O)NCl [MCU, N-chlorourea]
Free Cl ([3]; Time = 0): 0 ppm
Tot Cl ([3]; Time = 0, listed as MCU-1): 1620 ppm
Tot Cl ([3]; Time = 0, listed as MCU-2): 1190 ppm
Free Cl ([3]; Time = 30 min, listed as MCU-1): 10 ppm
Tot Cl ([3]; Time = 30 min, listed as MCU-1): 1500 ppm
Free Cl ([3]; Time = 30 min, listed as MCU-2): 20 ppm
Tot Cl ([3]; Time = 30 min, listed as MCU-2): 1210 ppm
Free Cl [3, 13]: 10 ppm
Tot Cl [3, 13]: 1490 ppm
Free Cl [3, 14]: 30 ppm
Tot Cl [3, 14]: 1120 ppm
Free Cl [3, 15]: 10 ppm
Tot Cl [3, 15]: 1230 ppm
Free Cl [3, 16]: 20 ppm
Tot Cl [3, 16]: 1000 ppm
Stability by 13C NMR ([5]; acidic conditions (pH of 2.5), overnight): no indication by ^13C NMR of any decomposition
Stability by 13C NMR ([5]; basic conditions, 12 hours): no peak in the ^13C NMR from chlorourea could be detected
log10 of viable cfu/mL (P. aeruginosa; 1.0 mg/l): 9.9 log10 cfu/mL
log10 of viable cfu/mL (P. aeruginosa; 3.0 mg/l): 4.3 log10 cfu/mL
log10 of viable cfu/mL (P. aeruginosa; 5.0 mg/l): 3.2 log10 cfu/mL
log10 of viable cfu/mL (P. aeruginosa; 10.0 mg/l): 3.1 log10 cfu/mL
log10 of viable cfu/mL remaining after exposure (Pseudomonas aeruginosa [4]; 5.0 mg/L as Cl2, 60 minutes): 4.0 log10 cfu/mL
log10 of viable cfu/mL remaining after exposure (Pseudomonas aeruginosa [4]; 10.0 mg/L as Cl2, 60 minutes): 2.7 log10 cfu/mL
log10 of viable cfu/mL remaining after exposure (Pseudomonas aeruginosa [4]; 15.0 mg/L as Cl2, 60 minutes): 2.3 log10 cfu/mL

CNC(=O)N(C)Cl [DMCU, N-chloro-N,N′-dimethylurea]
log10 reduction of viable cfu/mL (LR) (Pseudomonas aeruginosa [2]; 0.3 mg/L): 0.45 log10
log10 reduction of viable cfu/mL (LR) (Pseudomonas aeruginosa [2]; 0.9 mg/L): 1.49 log10
log10 reduction of viable cfu/mL (LR) (Pseudomonas aeruginosa [2]; 1.5 mg/L): 3.99 log10
half life t½ ([6]; 50 ° C., pH 3): 4 days
final concentration Cf ([6]; 50 ° C., pH 3, C0 575 ppm, tf 1 Days): 491 ppm
half life t½ ([6]; 50 ° C., pH 5): 82 days
final concentration Cf ([6]; 50 ° C., pH 5, C0 576 ppm, tf 3 Days): 561 ppm
half life t½ ([6]; 50 ° C., pH 12): 0.417 days
final concentration Cf ([6]; 50 ° C., pH 12, C0 478 ppm, tf 6 Hours): 315 ppm
half life t½ ([6]; 75 ° C., pH 3): 0.75 days
final concentration Cf ([6]; 75 ° C., pH 3, C0 576 ppm, tf 24 Hours): 231 ppm
half life t½ ([6]; 75 ° C., pH 7): 14 days
final concentration Cf ([6]; 75 ° C., pH 7, C0 590 ppm, tf 1 Days): 562 ppm
half life t½ ([6]; 75 ° C., pH 12): 0.17 days
final concentration Cf ([6]; 75 ° C., pH 12, C0 423 ppm, tf 24 Hours): 4 ppm
half life t½ ([6]; RT, pH 2): 41 days
final concentration Cf ([6]; RT, pH 2, C0 393 ppm, tf 34 Days): 220 ppm
half life t½ ([6]; RT, pH 3): 54 days
final concentration Cf ([6]; RT, pH 3, C0 577 ppm, tf 28 Days): 402 ppm
half life t½ ([6]; RT, pH 5): 84 days
final concentration Cf ([6]; RT, pH 5, C0 603 ppm, tf 34 Days): 456 ppm
half life t½ ([6]; RT, pH 7): 104 days
final concentration Cf ([6]; RT, pH 7, C0 590 ppm, tf 33 Days): 474 ppm
half life t½ ([6]; RT, pH 9): 106 days
final concentration Cf ([6]; RT, pH 9, C0 589 ppm, tf 33 Days): 475 ppm
half life t½ ([6]; RT, pH 12): 2 days
final concentration Cf ([6]; RT, pH 12, C0 423 ppm, tf 1 Days): 280 ppm
half-life ([6]; aqueous solution, acidic and basic conditions at room temperature, read-out: half lives): 2 to 100 days
